{"source": "BindingDB's records for patent US20250136592", "about": "(Bridge Medicines, 2025)", "molecular_target": "T1, Protein ENL (Homo sapiens, UniProt Q03111)", "T1 sequence (Q03111 whole entry)": "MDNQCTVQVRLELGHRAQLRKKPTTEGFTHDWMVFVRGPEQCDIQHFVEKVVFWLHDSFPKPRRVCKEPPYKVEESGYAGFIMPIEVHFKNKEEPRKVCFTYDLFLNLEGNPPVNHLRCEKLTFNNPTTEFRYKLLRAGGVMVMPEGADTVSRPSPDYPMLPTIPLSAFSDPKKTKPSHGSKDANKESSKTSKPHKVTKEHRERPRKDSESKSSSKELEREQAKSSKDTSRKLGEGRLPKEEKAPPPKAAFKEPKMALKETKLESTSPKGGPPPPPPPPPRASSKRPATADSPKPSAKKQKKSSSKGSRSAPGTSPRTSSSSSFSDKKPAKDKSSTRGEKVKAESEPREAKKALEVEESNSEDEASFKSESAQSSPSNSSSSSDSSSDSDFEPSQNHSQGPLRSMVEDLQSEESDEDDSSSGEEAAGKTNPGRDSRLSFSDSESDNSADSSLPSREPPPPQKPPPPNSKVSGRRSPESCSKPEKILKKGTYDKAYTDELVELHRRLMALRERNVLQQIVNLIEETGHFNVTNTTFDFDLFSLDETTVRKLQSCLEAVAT", "test": "FRET Assay", "method": "Low control (LC) wells received 5 μL of assay buffer instead of ENL protein. […] The response at each compound concentration minus the LC value was converted to percent inhibition of the vehicle control group response (HC-LC).", "data": [{"compound": "CN1CCC[C@@H]1c1nc2ccc(NC(=O)c3ccc4c(C5CC5)nn(C)c4c3)cc2[nH]1", "note": "[US20250136592, Example 10]", "values": [{"measurement": "IC50", "value": 98, "unit": "nM"}]}, {"compound": "CN1CCC[C@@H]1c1nc2cc(NC(=O)c3ccc4c(-c5ccncc5)noc4c3)ccc2[nH]1", "note": "[US20250136592, Example 13]", "values": [{"measurement": "IC50", "value": 158, "unit": "nM"}]}, {"compound": "Cc1nccc2cc(C(=O)Nc3cc4[nH]c([C@H]5CCCCN5C)cc4cn3)ccc12", "note": "[US20250136592, Example 80]", "values": [{"measurement": "IC50", "value": 18, "unit": "nM"}]}, {"compound": "CN1CCC[C@@H]1c1cc2cnc(NC(=O)c3ccc4c(c3)nnn4-c3ccncc3)cc2[nH]1", "note": "[US20250136592, Example 85]", "values": [{"measurement": "IC50", "value": 56, "unit": "nM"}]}]}
